pIC50: −log10 of the molar value.

Series [1] deals with MCF-7 Breast Cancer cells. Nature of the series: In vitro cytotoxicity assay (trypan blue), MCF-7. Type of series: cell-based, human. Conditions: for Cytoxicity (% Dead cells): MCF-7 Breast Cancer cells. The protocol: (§1) Normal and cancerous human breast cells were plated at a density of ˜70,000-80,000 cells/well in 24 well plates. Each test compound was added to the cell media at the indicated concentration and incubated at 37° C. in a CO2 incubator for the indicated time. Following incubation, cells were harvested and exposed to trypan blue dye; dead cells were stained exclusively (living cells remained unstained) and counted.

Series [2] has as its system Normal Human Breast Epithelial Cells. As to the kind of experiment: In vitro cytotoxicity assay (trypan blue), normal breast cells. The series is classed as cell-based. Conditions: for Cytoxicity (% Dead cells): Normal Human Breast Epithelial Cells. The protocol:
as §1

Series [3] deals with C33A cervical carcinoma cells. As to the kind of experiment: Cell viability, cellular ATP levels (ViaLight), C33A. The series is classed as cell-based, human. As to conditions: 72 hours; for effect on ATP levels in C33A cancer cell line compared with HMEC and MRC-5 normal cells (FIG. 1): 0.05 μM. From the text: (§2) C33A cervical carcinoma cells, Mrc-5 normal lung fibroblasts, PC-3 human prostatic carcinoma cell line, OVCAR-3 human ovarian carcinoma cal line, H460 large cell lung cancer cell line, A549 human lung carcinoma cell line, H1299 human non-small cell lung cancer cells, MCF-7 human breast cancer cell line, SW-480 human adenocarcinoma cell line, B16-F1 mouse melanoma cell line (American Type Culture Collection, Manassas, Va. USA), HMEC normal mammary epithelial cells (Clonetics San Diego, Calif., USA) and ADR-RES human breast cancer cell line (NCI, MD, USA) were cultured in the media recommended by the American Type Culture Collection. The cells lines were plated in 96-well microtiter plates (PerkinElmer Life Sciences Inc, Boston, Mass., USA) at a density that allowed them to reach confluence after 4 days of growth. One day after plating, the cells were treated with various concentrations of Compound 138T or Compound 139T. Stock solutions of the compounds were prepared in dimethyl sulfoxide (Sigma-Aldrich Inc., St. Louis, Mo., USA), diluted in media and then added to the cells. The total dimethyl sulfoxide on the cells was 1%. After 3 days of incubation the ATP levels in the cells were quantified using the luminescent ViaLight detection system (Bio-Whittaker, Md., USA). The results were plotted relative to untreated control cells, which were set at 100 (FIG. 1).

Series [4] in a line: Body weight and survival of C33A tumor-bearing SCID mice. The series is classed as in vivo, CB17 SCID/SCID mice. The protocol: (§3) C33A cells were injected subcutaneously into the flanks of the female CB17 SCID/SCID mice. Each mouse was inoculated with a suspension of 2×10^6 tumor cells per 100 μl on day 0. There were ten mice in each treatment group, i.e., in the control group, the positive control group and the Compound 138T group.
(§4) Treatments started on day fourteen after C33A cells transplantation. Compound 138T was administered intravenously once daily for five consecutive days at a dose of 8 mg/kg. a solution of Compound 138T was prepared fresh daily in a vehicle solution of 5% Dextrose (Abbot Laboratories, QC, Canada) and 2% Tween20 (Sigma, St. Louis, Mo., USA). The control group was treated with vehicle alone. The injection volume for both, the Compound 138T treated group and the control group was 150 μl. The positive control group was treated once every 3 days for five times with cisplatin (Sigma, St. Louis, Mo., USA) at a dose of 4 mg/kg. Cisplatin was formulated in PBS on each day of the injection and was administered intraperitoneally in an injection volume of 80 μl.
(§5) The mice were weighed and the tumors were measured on day 13 and every 2 days after the treatment commenced. Observation continued for 40 days after initial tumor implantation. The changes in body weight and in the calculated tumor volume were plotted (FIG. 2 to 4).

Series [5] concerns MBA-MB231 Breast Cancer cells. Nature of the series: In vitro cytotoxicity assay (trypan blue), MBA-MB231. Type of series: cell-based, human. As to conditions: for Cytoxicity (% Dead cells): MBA-MB231 Breast Cancer cells, 72 h. The protocol: as §1
Series [6] has as its system Normal and cancerous human breast cells. As to the kind of experiment: In vitro cytotoxicity assay, selective toxicity to oncogenic cells relative to normal cells. Type of series: cell-based. Conditions: trypan blue cytotoxicity assay. How it is done: as §1
Series [7] has as its system HMEC normal mammary epithelial cells. Nature of the series: Cell viability, cellular ATP levels (ViaLight), HMEC. Type of series: cell-based. Conditions: 72 hours.
Excerpt: as §2

Series [8] deals with MCF-7 human breast cancer cell line. Nature of the series: Cell viability, cellular ATP levels (ViaLight), MCF-7. Type of series: cell-based. As to conditions: MCF7, Cell line MCF-7, Breast, 72 hours, read-out: IC50 of Compound 138T.
Excerpt: as §2

Series [9] relates to B16-F1 mouse melanoma cell line. Nature of the series: Cell viability, cellular ATP levels (ViaLight), B16-F1. The series is classed as cell-based. As to conditions: Cell line B16-F1, Murine Melanoma, 72 hours, read-out: IC50 of Compound 138T.
Excerpt: as §2

The subject of series [10] is ADR-RES human breast cancer cell line. As to the kind of experiment: Cell viability, cellular ATP levels (ViaLight), ADR-RES. The series is classed as cell-based. Conditions: Cell line NCI/ADR-RES, Breast (Mutli-drug resistant), 72 hours, read-out: IC50 of Compound 138T.
Excerpt: as §2

Series [11] deals with H460 large cell lung cancer cell line. As to the kind of experiment: Cell viability, cellular ATP levels (ViaLight), H460. The series is classed as cell-based. Conditions: Homo sapiens, NCI-H460, Cell line H460, NSCL-LC, 72 hours, read-out: IC50 of Compound 138T.
Excerpt: as §2

Series [12] relates to A549 human lung carcinoma cell line. As to the kind of experiment: Cell viability, cellular ATP levels (ViaLight), A549. Conditions: Cell line A549, NSCL-aden, 72 hours, read-out: IC50 of Compound 138T. The series is classed as cell-based.
Excerpt: as §2

The test system of series [13] is PC-3 human prostatic carcinoma cell line. As to the kind of experiment: Cell viability, cellular ATP levels (ViaLight), PC-3. Type of series: cell-based. Conditions: Cell line PC-3, Prostate, 72 hours, read-out: IC50 of Compound 138T.
Excerpt: as §2

Series [14] concerns H1299 human non-small cell lung cancer cells. Nature of the series: Cell viability, cellular ATP levels (ViaLight), H1299. The series is classed as cell-based. Conditions: NCI-H1299, Cell line H1299, NSCL-LC, 72 hours, read-out: IC50 of Compound 138T.
Excerpt: as §2

For series [15], the system named is human cervical cancer C33A. Nature of the series: Antitumor activity in vivo, C33A tumors in SCID mice (tumor volume). Also noted: species or system CB17 SCID/SCID mice. How it is done: The C33A human cervical cancer cells were maintained in RPMI (Hyclone, Utah, USA) supplemented with 10% inactivated fetal bovine serum (Bio-Whittaker, Md., USA) and 1% penicillin-streptomycin-L-Glutamine (Gibco, N.Y., USA), under 5% CO2 at 37° C., and passaged twice a week. The cells were grown at a confluency lower than 70% and than collected with Trypsin (Bio-Whittaker, Md., USA). Cells were then centrifuged and washed two time in phosphate buffer solution (PBS) and resuspended in PBS at 2×10^6 cells per 100 μl. Viability was examined by staining with trypan blue (Gibco, N.Y., USA) and only flasks with cell viability greater than 95% were used for in vivo studies.
as §3, §4, §5

In series [16] the test system is OVCAR-3 human ovarian carcinoma cal line. As to the kind of experiment: Cell viability, cellular ATP levels (ViaLight), OVCAR-3. As to conditions: Cell line OVCAR-3, Ovary, 72 hours, read-out: IC50 of Compound 138T. The series is classed as cell-based.
Excerpt: as §2

In series [17] the test system is SW-480 human adenocarcinoma cell line. As to the kind of experiment: Cell viability, cellular ATP levels (ViaLight), SW-480. The series is classed as cell-based. As to conditions: SW480, Cell line SW-480, Colorectal, 72 hours, read-out: IC50 of Compound 138T.
Excerpt: as §2

Setting [18] is: 8 mg/kg intravenously once daily for five consecutive days from day fourteen.

Turning to Ethyl-meta-cyclononylprodiginine, the “Cytoxicity (% Dead cells)” value in series [1] (0.2 μM, 24 h) was 45%; in series [1] (1.0 μM, 24 h) it was 62%; in [1] (2.0 μM, 24 h), 65%; in series [2] (0.2 μM, 24 h) it was 10%; in [2] (1.0 μM, 24 h), 9%; in series [2] (2.0 μM, 24 h), 15%.
Regarding `CCCCc1cc(C)c(C=C2N=C(c3ccc[nH]3)C=C2OC)[nH]1` [Compound 139T, 5′-(5-Butyl-3-methyl-1H-pyrrol-2-ylmethylene)-4′-methoxy-1H,5′H-[2,2′]bipyrrolyl], in series [3], the “effect on ATP levels in C33A cancer cell line compared with HMEC and MRC-5 normal cells (FIG. 1)” value is “significantly more effective at lowering ATP levels in C33A cancer cell line”.
As for `N.N.[Cl][Pt][Cl]` [cisplatin], in [4] (4 mg/kg intraperitoneally once every 3 days for five times, day 29), the weight loss is listed as 28%. In addition, in series [4] (4 mg/kg intraperitoneally once every 3 days for five times, days 29 and 32, ten mice per group), the “mice died in treated group” value is “Two”.
`CCCCC1CCCCCCc2cc1c(/C=C1\N=C(c3ccc[nH]3)C=C1OC)[nH]2` (stereo not shown) [Butyl-meta-cycloheptylprodiginine, 2-Butyl-11-((3-methoxy-5-(1H-pyrrol-2-yl)-2H-pyrrol-2-ylidene)methyl)-10-azabicyclo[7.2.1]dodeca-9(12),11-diene]: the “cell death in cancer cells” value in series [5] (0.25 mM concentration (Table 10), second cancer cell value, MBA-MB231 in Table 10) turned out to be 64%; in series [1] (0.25 mM concentration (Table 10), first cancer cell value, MCF-7 in Table 10), 70%. Moreover, the “Cytoxicity (% Dead cells)” value is 64% in series [5] (0.25 μM); 100% in [5] (1.0 μM); 100% in series [5] (2.0 μM); 70% in [1] (0.25 μM, 72 h); 100% in [1] (1.0 μM, 72 h); 100% in [1] (2.0 μM, 72 h). Besides, the “Cytoxicity (% Dead cells)” value in [2] (0.25 μM, 72 h) was 5%; in series [2] (1.0 μM, 72 h), 5%; in series [2] (2.0 μM, 72 h), 15%. Further, in series [2] (0.25 mM concentration (Table 10)), the “cell death in normal cells” value worked out at 5%. In series [6], the “selective toxicity to breast cancer cells relative to normal human breast epithelial cells” value is reported as “selectively killed the breast cancer cells”.
The pIC50 is −log10 of the IC50, conventionally taken in molar units. Take `COC1=CC(c2ccc[nH]2)=NC1=Cc1[nH]c(C)cc1C` [Compound 138T, 5′-(3,5-Dimethyl-1H-pyrrol-2-ylmethylene)-4′-methoxy-1H,5′H-[2,2′]bipyrrolyl]: the “effect on ATP levels in cancer cell lines compared with normal HMEC cell line” value in series [7] (ten cancer cell lines) is “significantly more effective at lowering ATP levels in all the cancer cell lines”. The pIC50 is 5.70 in series [7] (Homo sapiens, Cell line HMEC, Normal Breast, ATP levels, read-out: IC50 of Compound 138T); 7.15 in series [8]; 7.70 in series [9]; 7.15 in series [10]; 7.52 in [3] (Homo sapiens, C-33-A, Cell line C3AA, Cervix, ATP levels, read-out: IC50 of Compound 138T); 7.22 in series [11]. Moreover, the pIC50 is 7.10 in series [12]; 7.30 in series [13]; 7.15 in series [14]; 7.52 in series [16]; 7.30 in series [17]. For the same molecule, in series [3], the “effect on ATP levels in C33A cancer cell line compared with HMEC and MRC-5 normal cells (FIG. 1)” value is “significantly more effective at lowering ATP levels in C33A cancer cell line”. Besides, the “effect on human cervical tumors implanted in SCID mice” value in series [15] (8 mg/kg intravenously once daily for five consecutive days) is reported as “significantly reduces the human cervical tumors implanted in SCID mice”. Besides, in series [15] (setting [18]), the “tumor volume curve versus control, values in standard error of the mean (FIG. 4)” value is on record as “significantly different from control curve for a longer period of time, until day 39”. Besides, the “tumor volume versus control, values expressed in 95% confidence interval (FIG. 3)” value in [15] (setting [18]) is on record as “significantly less than control until day 29”. The “tumor volume curve compared with the cisplatin treated group” value in [15] (8 mg/kg intravenously once daily for five consecutive days, cisplatin 4 mg/kg intraperitoneally) was “follows the tumor volume curve of the cisplatin treated group until day 39”. Besides, the weight loss in series [4] (8 mg/kg intravenously once daily for five consecutive days, day 22) is reported as 10%.

Values taken from patent US7491745B2, “Pyrrole-Type compounds, compositions and methods for treating cancer or viral disease” (Gemin X Pharmaceuticals Canada Inc., priority 2000, dated 2009).
